Experimental data from patent publication US8822430B2 (Gilead Sciences, Inc., priority 2009, dated 2014).

Tested on: HCV 1b RLuc cells (dicistronic genotype 1b Con1 replicon)
Assay: Renilla luciferase (RLuc)-based HCV replicon reporter assay
Assay type: cell-based, HCV genotype 1b
Settings: Hepatitis C virus, 72 h, HCV 1b RLuc replicon, 72 hours; read-out: Activity (antiviral potency [EC50])
Outline: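 HCV 1b RLuc cells carrying a dicistronic genotype 1b Con1 replicon were treated with serially diluted compounds from 10 mM DMSO stocks. After 72 h, cells were lysed and Renilla luciferase activity measured. EC50 was obtained by non-linear regression.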

| SMILES | EC50 |
| --- | --- |
| COC(=O)N[C@H](C(=O)N1[C@@H]2CC[C@@H](C2)[C@H]1c1ncc(-c2ccc(-c3ccc(-c4cnc([C@@H]5[C@H]6CC[C@H](C6)N5C(=O)[C@@H](NC(=O)OC)C(C)C)[nH]4)cc3)cc2)[nH]1)C(C)C | 0.01 nM |
| COC(=O)N[C@H](C(=O)N1CCC[C@H]1c1ncc(-c2ccc(-c3ccc(-c4cnc([C@@H]5CC[C@H]6CN(C(=O)OC)CC(=O)N65)[nH]4)cc3)cc2)[nH]1)C(C)C | 0.0664 nM |
| COC(=O)N[C@@H](C(=O)N1CCC[C@@H]1c1ncc(-c2ccc3c(c2)S(=O)(=O)c2cc(-c4cnc([C@H]5CCCN5C(=O)[C@H](NC(=O)OC)C(C)C)[nH]4)ccc2-3)[nH]1)C(C)C | 0.0535 nM |
| COC(=O)N[C@H](C(=O)N1CCC[C@H]1c1ncc(-c2ccc(N3CCC(c4cnc([C@@H]5CCCN5C(=O)[C@@H](NC(=O)OC)C(C)C)[nH]4)CC3)cc2)[nH]1)C(C)C | 0.456 nM |
| COC(=O)N[C@H](C(=O)N1CCC[C@H]1c1ncc(-c2ccc(Oc3ccc(-c4cnc([C@@H]5CCCN5C(=O)[C@@H](NC(=O)OC)C(C)C)[nH]4)cc3)cc2)[nH]1)C(C)C | > 21.3 nM |
| COC(=O)N[C@@H](CCS(C)(=O)=O)C(=O)N1C[C@@H](C#N)C[C@H]1c1ncc(-c2ccc(-c3ccc4cc(-c5cnc([C@@H]6CC7(CC7)CN6C(=O)[C@@H](NC(=O)OC)C(C)C)[nH]5)ccc4c3)cc2)[nH]1 | 0.256 nM |
| COC(=O)N[C@@H](CCS(C)(=O)=O)C(=O)N1CC2(CC2)C[C@H]1c1ncc(-c2ccc(-c3ccc4cc(-c5cnc([C@@H]6C[C@H](C#N)CN6C(=O)[C@@H](NC(=O)OC)C(C)C)[nH]5)ccc4c3)cc2)[nH]1 | 0.0405 nM |
| COC(=O)N[C@H](C(=O)N1C[C@@H](C#N)C[C@H]1c1ncc(-c2ccc3cc(-c4ccc(-c5cnc([C@@H]6[C@H]7CC[C@H](C7)N6C(=O)[C@@H](NC(=O)OC)C(C)C)[nH]5)cc4)ccc3c2)[nH]1)C(C)C | 0.0097 nM |
| COC(=O)N[C@H](C(=O)N1CCC[C@H]1c1ncc(-c2ccc3c(c2)COc2cc(-c4ccc5nc([C@@H]6[C@H]7CC[C@H](C7)N6C(=O)[C@@H](NC(=O)OC)C(C)C)[nH]c5c4)ccc2-3)[nH]1)C(C)C | 0.007 nM |
| COC(=O)N[C@H](C(=O)N1CCC[C@H]1c1ncc(-c2ccc3c(c2)C(=O)c2cc(-c4ccc5nc([C@@H]6[C@H]7CC[C@H](C7)N6C(=O)[C@@H](NC(=O)OC)C(C)C)[nH]c5c4)ccc2-3)[nH]1)C(C)C | 0.006 nM |
| COC(=O)N[C@@H](CC#N)C(=O)N1[C@@H]2CC[C@@H](C2)[C@H]1c1nc2ccc(-c3ccc4c(c3)C(F)(F)c3cc(-c5cnc([C@@H]6CC7(CC7)CN6C(=O)[C@@H](NC(=O)OC)C(C)C)[nH]5)ccc3-4)cc2[nH]1 | 0.004 nM |
| COC(=O)N[C@@H](CS(C)(=O)=O)C(=O)N1[C@@H]2CC[C@@H](C2)[C@H]1c1nc2ccc(-c3ccc4c(c3)C(F)(F)c3cc(-c5cnc([C@@H]6CC7(CC7)CN6C(=O)[C@@H](NC(=O)OC)C(C)C)[nH]5)ccc3-4)cc2[nH]1 | 0.005 nM |
| COC(=O)N[C@H](C(=O)N1[C@@H]2CC[C@@H](C2)[C@H]1c1nc2ccc(-c3ccc4c(c3)C(=O)c3cc(-c5cnc([C@@H]6CC7(CC7)CN6C(=O)[C@H](NC(=O)OC)C(C)C)[nH]5)ccc3-4)cc2[nH]1)C(C)C | 0.005 nM |
| COC(=O)N[C@H](C(=O)N1CC2(CC2)C[C@H]1c1ncc(-c2ccc3c(c2)C2(CC2)c2cc(-c4ccc5nc([C@@H]6[C@H]7CC[C@H](C7)N6C(=O)[C@@H](NC(=O)OC)C(C)C)[nH]c5c4)ccc2-3)[nH]1)C(C)C | 0.0073 nM |
| COC(=O)N[C@H](C(=O)N1CC2(CC2)C[C@H]1c1ncc(-c2ccc3c(c2)oc2cc(-c4ccc5nc([C@@H]6[C@H]7CC[C@H](C7)N6C(=O)[C@@H](NC(=O)OC)C(C)C)[nH]c5c4)ccc23)[nH]1)C(C)C | 0.0041 nM |
| COC(=O)N[C@H](C(=O)N1CCC[C@H]1c1ncc(-c2ccc3c(c2)Nc2ccc(-c4cnc([C@@H]5CCCN5C(=O)[C@@H](NC(=O)OC)C(C)C)[nH]4)cc2S3)[nH]1)C(C)C | 1.72 nM |
| CON[C@H](C(=O)N1CCC[C@H]1c1ncc(-c2ccc(-c3ccc4cc(-c5cnc([C@@H]6CCCN6C(=O)[C@@H](NC(=O)OC)C(C)C)[nH]5)ccc4c3)cc2)[nH]1)C(C)C | 0.525 nM |
| COC(=O)N[C@H](C(=O)N1CCC[C@H]1c1ncc(-c2ccc(-c3cc4ccc(-c5cnc([C@@H]6CCCN6C(=O)[C@@H](NC(=O)OC)C(C)C)[nH]5)cc4s3)cc2)[nH]1)C(C)C | 0.0093 nM |
| COC(=O)N[C@H](C(=O)N1CCC[C@H]1c1nc(-c2ccc3c(c2)C(F)(F)c2cc(-c4cnc([C@@H]5CC6(CC6)CN5C(=O)[C@@H](NC(=O)OC)C(C)C)[nH]4)ccc2-3)c[nH]1)C(C)C | 0.0125 nM |
| COC(=O)N[C@H](C(=O)N1CC2(CC2)C[C@H]1c1ncc(-c2ccc3c(c2)C(F)(F)c2cc(-c4c[nH]c([C@@H]5CCCN5C(=O)[C@@H](NC(=O)OC)C5CCOCC5)n4)ccc2-3)[nH]1)C(C)C | 0.0614 nM |
| COC(=O)N[C@@H](CCSC)C(=O)N1CCC[C@H]1c1nc(-c2ccc3c(c2)C(F)(F)c2cc(-c4cnc([C@@H]5CC6(CC6)CN5C(=O)[C@@H](NC(=O)OC)C(C)C)[nH]4)ccc2-3)c[nH]1 | 0.0204 nM |

| SMILES | EC50 |
| --- | --- |
| COC(=O)N[C@H](C(=O)N1CCC[C@H]1c1ncc(-c2ccc(-c3ccc4c(c3)C(F)(F)c3cc(-c5cnc([C@@H]6CC7(CC7)CN6C(=O)[C@@H](NC(=O)OC)C(C)C)[nH]5)ccc3-4)cc2)[nH]1)C(C)C | 0.0208 nM |
| COC(=O)N[C@H](C(=O)N1C[C@@H](C#N)C[C@H]1c1ncc(-c2ccc3cc(-c4ccc(-c5cnc([C@@H]6CC7(CC7)CN6C(=O)[C@@H](NC(=O)OC)C(C)C)[nH]5)cc4)ccc3c2)[nH]1)C(C)C | 0.0169 nM |
| CC[C@H](NC(=O)OC)C(=O)N1C[C@@H](C#N)C[C@H]1c1ncc(-c2ccc3cc(-c4ccc(-c5cnc([C@@H]6CC7(CC7)CN6C(=O)[C@@H](NC(=O)OC)C(C)C)[nH]5)cc4)ccc3c2)[nH]1 | 0.0155 nM |
| COC(=O)N[C@H](C(=O)N1CCC[C@H]1c1ncc(-c2ccc3cc(-c4ccc(-c5cnc([C@@H]6C[C@H](CN(C)C)CN6C(=O)[C@@H](NC(=O)OC)C(C)C)[nH]5)cc4)ccc3c2)[nH]1)C(C)C | 0.125 nM |
| COC(=O)N[C@H](C(=O)N1CCC[C@H]1c1ncc(-c2ccc3cc(-c4ccc(-c5cnc([C@@H]6C[C@H](CNS(C)(=O)=O)CN6C(=O)[C@@H](NC(=O)OC)C(C)C)[nH]5)cc4)ccc3c2)[nH]1)C(C)C | 0.12 nM |
| COC(=O)N[C@H](C(=O)N1CCC[C@H]1c1ncc(-c2ccc3cc(-c4ccc(-c5cnc([C@@H]6C[C@H](CNC(C)=O)CN6C(=O)[C@@H](NC(=O)OC)C(C)C)[nH]5)cc4)ccc3c2)[nH]1)C(C)C | 0.138 nM |
| COC(=O)N[C@H](C(=O)N1CC2(CC2)C[C@H]1c1ncc(-c2ccc(-c3ccc4cc(-c5cnc([C@@H]6C[C@H](C#N)CN6C(=O)[C@@H](NC(=O)OC)C(C)(C)C)[nH]5)ccc4c3)cc2)[nH]1)C(C)C | 0.0165 nM |
| COC(=O)N[C@@H](C)C(=O)N1[C@@H]2CC[C@@H](C2)[C@H]1c1ncc(-c2ccc(-c3ccc4cc(-c5cnc([C@@H]6CC7(CC7)CN6C(=O)[C@@H](NC(=O)OC)C(C)C)[nH]5)ccc4c3)cc2)[nH]1 | 0.0156 nM |
| COCC[C@H](NC(=O)OC)C(=O)N1[C@@H]2CC[C@@H](C2)[C@H]1c1ncc(-c2ccc(-c3ccc4cc(-c5cnc([C@@H]6CC7(CC7)CN6C(=O)[C@@H](NC(=O)OC)C(C)C)[nH]5)ccc4c3)cc2)[nH]1 | 0.0119 nM |
| CC[C@H](NC(=O)OC)C(=O)N1C[C@@H](C#N)C[C@H]1c1ncc(-c2ccc(-c3ccc4cc(-c5cnc([C@@H]6CC7(CC7)CN6C(=O)[C@@H](NC(=O)OC)C(C)C)[nH]5)ccc4c3)cc2)[nH]1 | 0.0176 nM |
| COC(=O)N[C@H](C(=O)N1CC2(CC2)C[C@H]1c1ncc(-c2ccc3cc(-c4ccc(-c5cnc([C@@H]6C[C@H](C#N)CN6C(=O)[C@@H](NC(=O)OC)C(C)(C)C)[nH]5)cc4)ccc3c2)[nH]1)C(C)C | 0.0127 nM |
| COC(=O)N[C@H](C(=O)N1[C@@H]2CC[C@@H](C2)[C@H]1c1ncc(-c2ccc(-c3ccc4cc(-c5cnc([C@@H]6CC7(CC7)CN6C(=O)[C@@H](NC(=O)OC)C6CCOCC6)[nH]5)ccc4c3)cc2)[nH]1)C(C)C | 0.0136 nM |
| COCC[C@H](NC(=O)OC)C(=O)N1CCS[C@H]1c1ncc(-c2ccc(-c3ccc4cc(-c5cnc([C@@H]6CC7(CC7)CN6C(=O)[C@@H](NC(=O)OC)C(C)C)[nH]5)ccc4c3)cc2)[nH]1 | 0.0402 nM |
| COC[C@@H]1C[C@@H](c2ncc(-c3ccc(-c4ccc5cc(-c6cnc([C@@H]7CC8(CC8)CN7C(=O)[C@@H](NC(=O)OC)C(C)C)[nH]6)ccc5c4)cc3)[nH]2)N(C(=O)[C@@H](NC(=O)OC)C(C)C)C1 | 0.0092 nM |
| COC(=O)N[C@H](C(=O)N1CC2(CC2)C[C@H]1c1ncc(-c2ccc3cc(-c4ccc(-c5cnc([C@@H]6SCCN6C(=O)[C@@H](NC(=O)OC)C(C)C)[nH]5)cc4)ccc3c2)[nH]1)C(C)C | 0.0192 nM |
| CC[C@H](NC(=O)OC)C(=O)N1CC2(CC2)C[C@H]1c1ncc(-c2ccc3cc(-c4ccc(-c5cnc([C@@H]6[C@H]7CC[C@H](C7)N6C(=O)[C@@H](NC(=O)OC)C(C)C)[nH]5)cc4)ccc3c2)[nH]1 | 0.0181 nM |
| COC(=O)N[C@H](C(=O)N1CC2(CC2)C[C@H]1c1nc(-c2ccc3cc(-c4ccc(-c5cnc([C@@H]6SCCN6C(=O)[C@@H](NC(=O)OC)C6CCOCC6)[nH]5)cc4)ccc3c2)c[nH]1)C(C)C | 0.132 nM |
| COC(=O)N[C@H](C(=O)N1CC2(CC2)C[C@H]1c1ncc(-c2ccc3cc(-c4ccc(-c5cnc([C@@H]6CC7(CN6C(=O)[C@@H](NC(=O)OC)C(C)C)OCCO7)[nH]5)cc4)ccc3c2)[nH]1)C(C)C | 0.0063 nM |
| CC[C@H](NC(=O)OC)C(=O)N1[C@@H]2CC[C@@H](C2)[C@H]1c1ncc(-c2ccc(-c3ccc4cc(-c5cnc([C@@H]6CC7(CC7)CN6C(=O)[C@@H](NC(=O)OC)C(C)C)[nH]5)ccc4c3)cc2)[nH]1 | 0.0086 nM |
| COC(=O)N[C@H](C(=O)N1[C@@H]2CC[C@@H](C2)[C@H]1c1ncc(-c2ccc(-c3ccc4cc(-c5cnc([C@@H]6CC7(CC7)CN6C(=O)[C@@H](NC(=O)OC)C(C)OC)[nH]5)ccc4c3)cc2)[nH]1)C(C)C (some centres unmarked) | 0.0077 nM |
